Measured values as given in patent US5449680A, “2,2 disubstituted glycerol and glycerol-like compounds, compositions and methods of use” (Schering Corporation, priority 1992, dated 1995).

Tested on: PAF-induced platelet aggregation
Assay: PAF-induced platelet aggregation in human platelet-rich plasma (PRP), in vitro PAF antagonism assay
Assay type: cell-based
Settings: Dose 5 μM, 37° C, 2 min preincubation, PAF 1-5×10^-8 M, read-out: Percent Inhibition
Procedure: These test procedures are standard tests used to determine PAF antagonistic activity and to evaluate the usefulness of said compounds for counteracting the biological effects of PAF. The in vitro assay is a simple screening test, while the in vivo test mimics clinical use of the compounds described herein.
Preparation of platelet-rich plasma (PRP): Human blood (50 ml) was collected from healthy male donors in an anticoagulant solution (5 ml) containing sodium citrate (3.8%) and dextrose (2%). Blood was centrifuged at 110× g for 15 min. and the supernatant (PRP) carefully transferred into a polypropylene tube. Platelet-poor-plasma (PPP) was prepared by centrifuging PRP at 12,000× g for 2 min. (Beckman Microfuge B). PRP was used within 3 hours of drawing the blood.
Platelet Aggregation Assay: When an aggregating agent such as PAF is added to PRP, platelets aggregate. An aggregometer quantifies this aggregation by measuring light transmission through PRP and comparing to PPP. The aggregation assays were performed using a dual channel aggregometer (Model 440, Chrono-Log Corp., Havertown, Penn.). PRP (0.45 ml)in aggregometer cuvettes was continually stirred (37° C). Solutions of test compounds or vehicle were added to the PRP, and after incubation for 2 min., 10-15 […] aliquots of PAF solution were added so as to achieve a final concentration of 1-5×10^-8 M. Incubations were continued until the increase in light transmission reached a maximum (usually 2 min). Values for inhibition were calculated by comparing maximal aggregation obtained in the absence and the presence of the compound. For each experiment, a standard PAF antagonist such as alprazolam was used as a positive internal control. The inhibitory concentration (IC50)is the concentration of compound in micromoles at which 50% of the aggregation is inhibited, as measured by the light transmission through each sample of PRP as compared to PPP.

SMILES | inhibition at 5 µM [%]
CCCCCCCCCCCCCCCCCCN(C)C(=O)OCC(C)(COP(=O)([O-])OCC[n+]1ccsc1)OC (centres unmarked) | 50

Same assay, conditions: Dose 10 μM, 37° C, 2 min preincubation, PAF 1-5×10^-8 M, read-out: Percent Inhibition

SMILES | inhibition at 10 µM [%]
CCCCCCCCCCCCCCCCCCNC(=O)OCC(C)(COP(=O)([O-])OCC[n+]1ccsc1)OC (centres unmarked) | 50
CCCCCCCCCCCCCCCCCCN(C)C(=O)OCC(C)(COCCCC[n+]1ccsc1)OC (centres unmarked) | 100
CCCCCCCCCCCCCCCCCCN(C)C(=O)OCC(C)(COC(=O)N(CC[n+]1ccccc1)C(C)=O)OC (centres unmarked) | 100
CCCCCCCCCCCCCCCCCCN(C)C(=O)OCC(C)(COCCCCCCCn1cc[n+](C)c1)OC (centres unmarked) | 93
CCCCCCCCCCCCCCCCCCN(C)C(=O)OCC(C)(COCCCCCCC[N+]1(C)CCSC1)OC (centres unmarked) | 93

Same assay, conditions: Dose 50 μM, 37° C, 2 min preincubation, PAF 1-5×10^-8 M, read-out: Percent Inhibition

SMILES | inhibition at 50 µM [%]
CCCCCCCCCCCCCCCCOCC(C)(COC(=O)OCC[N+]1(C)CCCC1)OC (centres unmarked) | 32
CCCCCCCCCCCCCCCCCCN(C)C(=O)OCC(C)(COP(=O)([O-])OCC[n+]1ccccc1)OC (centres unmarked) | 43
CCCCCCCCCCCCCCCCCCN(C)C(=O)OCC(C)(COCCCCCCC[n+]1ccsc1)OC (centres unmarked) | 100
CCCCCCCCCCCCCCCCCCN(C)C(=O)OCC(CC)(COP(=O)([O-])OCC[n+]1ccsc1)OC (centres unmarked) | 100
CCCCCCCCCCCCCCCCCCN(C)C(=O)OCC(CC)(COP(=O)(O)OCCn1ccnc1)OC (centres unmarked) | 23
CCCCCCCCCCCCCCCCOCC(C)(COC(=O)OCC[n+]1ccccc1)OC (centres unmarked) | 68
CCCCCCCCCCCCCCCCCCN(C)C(=O)OCC(COP(=O)([O-])OCC[n+]1ccsc1)(OC)C(C)C (centres unmarked) | 100
CCCCCCCCCCCCCCCCCCN(C)C(=O)OCC(C)(COCCCCCCC[n+]1ccsc1)SC (centres unmarked) | 100
CCCCCCCCCCCCCCCCCCN(C)C(=O)OCC(C)(COC(=O)NCC[N+](C)(C)C)OC (centres unmarked) | 67
CCCCCCCCCCCCCCCCCCN(C)C(=O)OCC(C)(COC(=O)NCC[n+]1ccsc1)OC (centres unmarked) | 97
CCCCCCCCCCCCCCCCCCN(C)C(=O)OCC(C)(COCCCCCCC[n+]1ccsc1)[S+](C)[O-] (centres unmarked) | 100
CCCCCCCCCCCCCCCCOCC(C)(COC(=O)NCC[n+]1ccsc1)OC (centres unmarked) | 44
CCCCCCCCCCCCCCCCCCN(C)C(=O)OCC(C)(COCCCCCCCN1CCSC1)OC (centres unmarked) | 10
CCCCCCCCCCCCCCCCCCN(C)C(=O)OCC(C)(COCCCCCCCn1cnc(CC(=O)OCc2ccccc2)c1)OC (centres unmarked) | 19
CCCCCCCCCCCCCCCCCCN(C)C(=O)OCC(C)(COCCCCCCCn1cnc(CC(=O)O)c1)OC (centres unmarked) | 19
CCCCCCCCCCCCCCCCCCN(C)C(=O)OCC(C)(COCCCCCCCOC(=O)C1CSCN1)OC (centres unmarked) | 3
CCCCCCCCCCCCCCCCCCN(C)C(=O)OCC(C)(COCc1ccc(C[n+]2ccsc2)cc1)OC (centres unmarked) | 100
CCCCCCCCCCCCCCCCCCN(C)C(=O)OCC(C)(COCCCCCCC[n+]1ccsc1)S(C)(=O)=O (centres unmarked) | 100
CCCCCCCCCCCCCCCCCCN(C)C(=O)OCC(C)(CC)COCCCCCCC[n+]1ccsc1 (centres unmarked) | 100
CCCCCCCCCCCCCCCCCCN(C)C(=O)OCC(C)(COCCCCCCCOC(=O)C(N)CSC)OC (centres unmarked) | 28
CCCCCCCCCCCCCCCCCCN(C)C(=O)OCC(C)(CNC(=O)OCC[n+]1ccccc1)OC (centres unmarked) | 100
CCCCCCCCCCCCCCCCCCN(C)C(=O)OCC(C)(COC(=O)NCCCCC[n+]1ccsc1)OC (centres unmarked) | 100
CCCCCCCCCCCCCCCCCCN(C)C(=O)OCC(C)(CNC(=O)OCC[N+](C)(C)C)OC (centres unmarked) | 83
CCCCCCCCCCCCCCCCCCN(C)C(=O)OCC(C)(CNS(=O)(=O)CCn1ccnc1)OC (centres unmarked) | 12
CCCCCCCCCCCCCCCCCCN(C)C(=O)OCC(C)(COCCCCCCCn1ccnc1N)OC (centres unmarked) | 17
COC(C)(COCCCCCCC[n+]1ccsc1)COC(=O)Nc1ccccc1 (centres unmarked) | 100
CC(COCc1ccc(CN2CCSC2=N)cc1)(COC(=O)Nc1ccccc1)S(C)(=O)=O (centres unmarked) | 90
COC(C)(COCCCCCCCN1CCSC1=N)COC(=O)Nc1ccc(F)cc1F (centres unmarked) | 91

Same assay, conditions: Dose 100 μM, 37° C, 2 min preincubation, PAF 1-5×10^-8 M, read-out: Percent Inhibition

SMILES | inhibition at 100 µM [%]
CCCCCCCCCCCCCCCCOCC(C)(COC(=O)OCC[N+](C)(C)C)OC (centres unmarked) | 100
